Reference: ChEMBL document CHEMBL4145694 (J Med Chem, 2018)
Active and inactive are the calls of the source. The rule behind the calls is not given here.

Assays:
[1] = biological target: Delta-type opioid receptor (Homo sapiens) (UniProt P41143); experiment: Agonist activity at human delta-opioid receptor expressed in CHO cell membranes assessed as stimulation of [35S]GTPgammaS binding at 10 uM incubated for 60 mins by scintillation counting method; assay type: functional
[2] = biological target: Kappa-type opioid receptor (Homo sapiens) (UniProt P41145); experiment: Agonist activity at human kappa-opioid receptor expressed in CHO cell membranes assessed as stimulation of [35S]GTPgammaS binding at 10 uM incubated for 60 mins by scintillation counting method; assay type: functional
Sequence of Kappa-type opioid receptor (Homo sapiens) (P41145 whole entry): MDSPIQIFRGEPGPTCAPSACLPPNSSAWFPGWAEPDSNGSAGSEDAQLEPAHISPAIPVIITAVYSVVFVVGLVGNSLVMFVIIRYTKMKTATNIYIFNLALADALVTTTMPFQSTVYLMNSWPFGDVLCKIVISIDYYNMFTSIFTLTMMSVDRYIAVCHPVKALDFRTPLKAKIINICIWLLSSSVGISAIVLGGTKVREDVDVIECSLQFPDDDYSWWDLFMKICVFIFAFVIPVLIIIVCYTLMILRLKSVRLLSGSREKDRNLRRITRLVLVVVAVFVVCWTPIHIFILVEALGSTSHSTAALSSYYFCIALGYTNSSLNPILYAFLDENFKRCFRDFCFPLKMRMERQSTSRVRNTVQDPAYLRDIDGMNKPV

[3] = biological target: Mu-type opioid receptor (Homo sapiens) (UniProt P35372); experiment: Agonist activity at human mu-opioid receptor expressed in CHO cell membranes assessed as stimulation of [35S]GTPgammaS binding at 10 uM incubated for 60 mins by scintillation counting method; assay type: functional
Sequence of Mu-type opioid receptor (Homo sapiens) (P35372 whole entry): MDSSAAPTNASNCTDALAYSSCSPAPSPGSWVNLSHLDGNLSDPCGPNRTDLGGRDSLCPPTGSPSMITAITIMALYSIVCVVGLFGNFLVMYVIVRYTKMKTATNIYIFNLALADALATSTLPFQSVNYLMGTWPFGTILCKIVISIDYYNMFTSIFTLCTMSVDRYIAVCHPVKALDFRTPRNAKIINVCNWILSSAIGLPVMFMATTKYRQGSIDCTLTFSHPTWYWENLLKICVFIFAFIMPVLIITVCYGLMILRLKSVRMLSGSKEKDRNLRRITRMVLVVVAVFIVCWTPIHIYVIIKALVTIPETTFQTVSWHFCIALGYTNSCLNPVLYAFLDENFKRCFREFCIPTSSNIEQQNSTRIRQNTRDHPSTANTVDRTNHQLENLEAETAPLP

[4] = biological target: Kappa-type opioid receptor (Homo sapiens) (UniProt P41145); experiment: Antagonist activity at human kappa-opioid receptor expressed in CHO cell membranes assessed as inhibition of U69593-induced [35S]GTPgammaS binding incubated for 60 mins by scintillation counting method; assay type: functional
[5] = biological target: Mu-type opioid receptor (Homo sapiens) (UniProt P35372); experiment: Antagonist activity at human mu-opioid receptor expressed in CHO cell membranes assessed as inhibition of DAMGO-induced [35S]GTPgammaS binding incubated for 60 mins by scintillation counting method; assay type: functional
[6] = species: Homo sapiens; experiment: Selectivity index, ratio of Ke for antagonist activity at human mu-opioid receptor expressed in CHO cell membranes to Ke for antagonist activity at human kappa-opioid receptor expressed in CHO cell membranes; assay type: cell-based
[7] = species: Homo sapiens; experiment: Selectivity index, ratio of Ke for antagonist activity at human delta-opioid receptor expressed in CHO cell membranes to Ke for antagonist activity at human kappa-opioid receptor expressed in CHO cell membranes; assay type: cell-based
[8] = biological target: Delta-type opioid receptor (Homo sapiens) (UniProt P41143); experiment: Antagonist activity at human delta-opioid receptor expressed in CHO cell membranes assessed as inhibition of DPDPE-induced [35S]GTPgammaS binding incubated for 60 mins by scintillation counting method; assay type: functional
[9] = Ratio of AUClast in brain to plasma of Sprague-Dawley CD rat at 5 mg/kg, sc administered as single dose measured over 1 to 168 hrs post dose by LC/MS-MS method; assay type: ADME, organism-based; details: Sprague-Dawley CD, brain and plasma, read-out: BPR

Sequence of Delta-type opioid receptor (Homo sapiens) (P41143 whole entry): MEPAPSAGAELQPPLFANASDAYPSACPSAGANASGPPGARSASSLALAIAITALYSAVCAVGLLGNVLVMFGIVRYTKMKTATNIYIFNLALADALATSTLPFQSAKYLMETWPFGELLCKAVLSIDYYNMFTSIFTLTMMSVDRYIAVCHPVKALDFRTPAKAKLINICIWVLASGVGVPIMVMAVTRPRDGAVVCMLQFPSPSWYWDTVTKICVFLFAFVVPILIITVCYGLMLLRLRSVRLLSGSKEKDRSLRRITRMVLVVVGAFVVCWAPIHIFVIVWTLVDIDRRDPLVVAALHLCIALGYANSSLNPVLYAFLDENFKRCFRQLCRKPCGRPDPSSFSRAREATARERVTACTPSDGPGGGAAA

Row | Structure (SMILES) | Activity [1] | Activity [2] | Activity [3] | Ke [4] | Ke [5] | Ratio Ke [6] | Ratio Ke [7] | Ke [8] | Kp [9]
1 | CC1CCN(C[C@@H](NC(=O)c2ccc3cc(O)ccc3c2)C(C)C)CC1 | inactive | inactive | inactive |  |  |  |  |  | 
2 | CC(C)[C@@H](CN1CCC(C(N)=O)CC1)NC(=O)[C@H]1Cc2ccc(O)cc2CN1 | inactive | inactive | inactive | 3.22 nM | 129 nM | 40 |  |  | 
3 | CC(C)[C@@H](CN1CC[C@@](C)(c2cccc(O)c2)[C@@H](C)C1)NC(=O)[C@H]1Cc2ccc(O)cc2CN1C |  |  |  |  |  | 1310 | 3070 |  | 
4 | CC(C)[C@@H](CN1CCCCC1)NC(=O)[C@H]1Cc2ccc(O)cc2CN1 | inactive | inactive | inactive |  |  |  |  |  | 
5 | O=C(NCCN1CCCCC1)[C@H]1Cc2ccc(O)cc2CN1 | inactive | inactive | inactive |  |  |  |  |  | 
6 | CC(C)[C@@H](CN1CC=CCC1)NC(=O)[C@H]1Cc2ccc(O)cc2CN1 | inactive | inactive | inactive |  |  |  |  |  | 
7 | COC1CCN(C[C@@H](NC(=O)[C@H]2Cc3ccc(O)cc3CN2)C(C)C)CC1 | inactive | inactive | inactive | 6.53 nM | 198 nM | 30 |  |  | 
8 | CC(C)[C@@H](CN1CCCC1)NC(=O)[C@H]1Cc2ccc(O)cc2CN1 | inactive | inactive | inactive |  |  |  |  |  | 
9 | CC(C)[C@@H](CN1CCC(C(F)(F)F)CC1)NC(=O)[C@H]1Cc2ccc(O)cc2CN1 | inactive | inactive | inactive | 4.69 nM | 67.9 nM | 14 |  |  | 
10 | CC(C)[C@@H](CN1C2CCC1CC2)NC(=O)[C@H]1Cc2ccc(O)cc2CN1 | inactive | inactive | inactive |  |  |  |  |  | 
11 | CC1=CCCN(C[C@@H](NC(=O)[C@H]2Cc3ccc(O)cc3CN2)C(C)C)C1 | inactive | inactive | inactive |  |  |  |  |  | 
12 | CC1CCCN(C[C@@H](NC(=O)[C@H]2Cc3ccc(O)cc3CN2)C(C)C)C1 (mixture of isomers) | inactive | inactive | inactive |  |  |  |  |  | 
13 | CC1CCN(C[C@@H](NC(=O)[C@@H]2CCc3cc(O)ccc3C2)C(C)C)CC1 | inactive | inactive | inactive |  |  |  |  |  | 
14 | CC1CCN(C[C@@H](NC[C@H]2Cc3ccc(O)cc3CN2)C(C)C)CC1 | inactive | inactive | inactive |  |  |  |  |  | 
15 | CCC1CCN(C[C@@H](NC(=O)[C@H]2Cc3ccc(O)cc3CN2)C(C)C)CC1 | inactive | inactive | inactive | 2.48 nM | 74.8 nM | 30 | 1000 | 2490 nM | 
16 | CC(C)[C@@H](CN1CCCCCC1)NC(=O)[C@H]1Cc2ccc(O)cc2CN1 | inactive | inactive | inactive |  |  |  |  |  | 
17 | CCCN(CCC)C[C@@H](NC(=O)[C@H]1Cc2ccc(O)cc2CN1)C(C)C | inactive | inactive | inactive |  |  |  |  |  | 
18 | CC(C)[C@@H](CN1CCN(C)CC1)NC(=O)[C@H]1Cc2ccc(O)cc2CN1 | inactive | inactive | inactive | 98.8 nM | 915 nM | 9 |  |  | 
19 | CC(C)[C@@H](CN1CCC(C#N)CC1)NC(=O)[C@H]1Cc2ccc(O)cc2CN1 | inactive | inactive | inactive | 12.7 nM | 647 nM | 51 |  |  | 
20 | CC(C)[C@@H](CN1CCC(C(F)F)CC1)NC(=O)[C@H]1Cc2ccc(O)cc2CN1 | inactive | inactive | inactive | 3.45 nM | 70.9 nM |  |  |  | 

Row | Structure (SMILES) | Activity [1] | Activity [2] | Activity [3] | Ke [4] | Ke [5] | Ratio Ke [6] | Ratio Ke [7] | Ke [8] | Kp [9]
21 | CC1=C(C)CN(C[C@@H](NC(=O)[C@H]2Cc3ccc(O)cc3CN2)C(C)C)CC1 | inactive | inactive | inactive |  |  |  |  |  | 
22 | CC(C)[C@@H](CN1CCC(N(C)C)CC1)NC(=O)[C@H]1Cc2ccc(O)cc2CN1 | inactive | inactive | inactive | 8.08 nM | 318 nM | 39 |  |  | 
23 | CC1CCN(C[C@@H](NC(=O)[C@H](N)Cc2ccc(O)cc2)C(C)C)CC1 | inactive | inactive | inactive |  |  |  |  |  | 
24 | CCN(CC)C[C@@H](NC(=O)[C@H]1Cc2ccc(O)cc2CN1)C(C)C | inactive | inactive | inactive |  |  | 16.5 |  |  | 
25 | CC(C)[C@@H](CN1CCC(C)(C)CC1)NC(=O)[C@H]1Cc2ccc(O)cc2CN1 | inactive | inactive | inactive |  | 142 nM | 40 | > 237 | 847 nM | 
26 | CC1CCN(C[C@H](NC(=O)[C@@H]2Cc3ccc(O)cc3CN2)C(C)C)CC1 | inactive | inactive | inactive |  |  |  |  | > 3000 nM | 
27 | CC1=CCN(C[C@@H](NC(=O)[C@H]2Cc3ccc(O)cc3CN2)C(C)C)CC1 | inactive | inactive | inactive |  |  |  |  |  | 
28 | CC1CCN(C[C@H](NC(=O)[C@H]2Cc3ccc(O)cc3CN2)C(C)C)CC1 | inactive | inactive | inactive |  |  |  |  | > 3000 nM | 
29 | CC(C)[C@@H](CN1CC[C@H](C)[C@@H](C)C1)NC(=O)[C@H]1Cc2ccc(O)cc2CN1 (mixture of isomers) | inactive | inactive | inactive |  |  |  |  |  | 
30 | CC1CC(C)CN(C[C@@H](NC(=O)[C@H]2Cc3ccc(O)cc3CN2)C(C)C)C1 (stereo not given in full) | inactive | inactive | inactive |  |  |  |  |  | 
31 | CC(C)[C@@H](CN1CC[C@@H](C)[C@@H](C)C1)NC(=O)[C@H]1Cc2ccc(O)cc2CN1 (mixture of isomers) | inactive | inactive | inactive |  |  |  |  |  | 
32 | CC1CCN(C[C@@H](NC(=O)[C@@H]2Cc3ccc(O)cc3CN2)C(C)C)CC1 | inactive | inactive | inactive |  |  |  |  | > 3000 nM | 
33 | CC(C)[C@@H](CN1CCCCC1=O)NC(=O)[C@H]1Cc2ccc(O)cc2CN1 | inactive | inactive | inactive |  |  |  |  |  | 
34 | CC(C)[C@@H](CN1CCCCC1C)NC(=O)[C@H]1Cc2ccc(O)cc2CN1 (mixture of isomers) | inactive | inactive | inactive | 15.1 nM | 44.9 nM | 3 |  |  | 
35 | CC(C)[C@@H](CN1CC[C@@](C)(c2cccc(O)c2)[C@@H](C)C1)NC(=O)[C@H]1Cc2ccc(O)cc2CN1 [JDTIC] |  |  |  |  |  |  |  |  | 7
36 | CC(C)[C@@H](CN1CCOCC1)NC(=O)[C@H]1Cc2ccc(O)cc2CN1 | inactive | inactive | inactive | 396 nM |  |  |  |  | 
37 | CC(C)[C@@H](CN1CCC(F)(F)CC1)NC(=O)[C@H]1Cc2ccc(O)cc2CN1 | inactive | inactive | inactive | 11.8 nM | 604 nM | 51 |  |  | 
38 | CC1CCN(C[C@@H](NC(=O)[C@H]2Cc3ccc(O)cc3CN2)C2CC2)CC1 | inactive | inactive | inactive |  |  |  |  |  | 
39 | CC(C)CN(CC(C)C)C[C@@H](NC(=O)[C@H]1Cc2ccc(O)cc2CN1)C(C)C | inactive | inactive | inactive | 137 nM |  |  |  |  | 
